Source: PubChem BioAssay AID328 (DTP/NCI, 2004)
Values joined by “and” are separate entries in the source; they are usually repeats but may differ in a detail not shown here. Equal values may be shown once. Toxic doses and inconclusive results are not listed.

System: BDF1 mice, P388 leukemia ip, median survival T/C
Assay: NCI In Vivo Anticancer Drug Screen. Data for tumor model P388 Leukemia (intraperitoneal) in B6D2F1 (BDF1) mice
Details: endpoint: median survival time, higher = longer survival
Outline: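 T/C = treated-group survival ÷ vehicle-control survival; tumour transplanted into mice before dosing.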

[1] = dose: 25.0 mg/kg/injection, schedule: Q04DX003 (ip), vehicle: saline
[2] = dose: 100.0 mg/kg/injection, schedule: Q01DX009 (ip), vehicle: saline with Tween-80
[3] = dose: 200.0 mg/kg/injection, schedule: Q01DX009 (ip), vehicle: saline with Tween-80

Q: For `CC(=O)Nc1ccc2c(Nc3ccc(NS(C)(=O)=O)cc3)c3ccccc3nc2c1`, which T/C (dose: 0.73 mg/kg/injection, schedule: Q01DX009 (ip), vehicle: saline) is on record?
A: 254 % of control

Q: And the T/C (dose: 0.88 mg/kg/injection, schedule: Q04DX003 (ip), vehicle: saline)?
A: 163 % of control

Q: What about the T/C (dose: 1.1 mg/kg/injection, schedule: Q01DX009 (ip), vehicle: saline) of the same compound?
A: 260 % of control

Q: What about the T/C (dose: 1.32 mg/kg/injection, schedule: Q04DX003 (ip), vehicle: saline) of the same compound?
A: 195 % of control

Q: What about the T/C (dose: 1.65 mg/kg/injection, schedule: Q01DX009 (ip), vehicle: saline) of the same compound?
A: 260 % of control

Q: What about the T/C (dose: 2.0 mg/kg/injection, schedule: Q04DX003 (ip), vehicle: saline) of the same compound?
A: 200 % of control

Q: What about the T/C (dose: 2.5 mg/kg/injection, schedule: Q01DX009 (ip), vehicle: saline) of the same compound?
A: 252 % of control and 262 % of control

Q: What about the T/C (dose: 3.0 mg/kg/injection, schedule: Q04DX003 (ip), vehicle: saline) of the same compound?
A: 195 % of control

Q: And the T/C (dose: 5.0 mg/kg/injection, schedule: Q01DX009 (ip), vehicle: saline)?
A: 92 % of control

Q: And the T/C (dose: 5.56 mg/kg/injection, schedule: Q04DX003 (ip), vehicle: saline)?
A: 250 % of control

Q: What about the T/C (dose: 5.6 mg/kg/injection, schedule: Q04DX003 (ip), vehicle: saline) of the same compound?
A: 236 % of control

Q: And the T/C (dose: 8.3 mg/kg/injection, schedule: Q04DX003 (ip), vehicle: saline)?
A: 281 % of control

Q: And the T/C (dose: 8.33 mg/kg/injection, schedule: Q04DX003 (ip), vehicle: saline)?
A: 250 % of control

Q: What about the T/C (dose: 12.5 mg/kg/injection, schedule: Q04DX003 (ip), vehicle: saline) of the same compound?
A: 250 % of control and 272 % of control and 281 % of control

Q: And the T/C (dose: 18.7 mg/kg/injection, schedule: Q04DX003 (ip), vehicle: saline)?
A: 250 % of control and 277 % of control

Q: What about the T/C [1] of the same compound?
A: 122 % of control

Q: What about the T/C (dose: 18.0 micrograms/kg/injection, schedule: Q04DX003 (ip), vehicle: saline) of the same compound?
A: 104 % of control

Q: And the T/C (dose: 27.0 micrograms/kg/injection, schedule: Q04DX003 (ip), vehicle: saline)?
A: 109 % of control

Q: And the T/C (dose: 40.0 micrograms/kg/injection, schedule: Q04DX003 (ip), vehicle: saline)?
A: 113 % of control

Q: How did the T/C [2] turn out when `CCOC(=O)C(C)(C(=O)OCC)c1ccccc1` was run?
A: 104 % of control

Q: What about the T/C (dose: 100.0 mg/kg/injection, schedule: Q04DX003 (ip), vehicle: saline with Tween-80) of the same compound?
A: 115 % of control

Q: And the T/C [3]?
A: 113 % of control

Q: What about the T/C (dose: 200.0 mg/kg/injection, schedule: Q04DX003 (ip), vehicle: saline with Tween-80) of the same compound?
A: 110 % of control

Q: And the T/C (dose: 400.0 mg/kg/injection, schedule: Q01DX009 (ip), vehicle: saline with Tween-80)?
A: 118 % of control

Q: And the T/C (dose: 400.0 mg/kg/injection, schedule: Q04DX003 (ip), vehicle: saline with Tween-80)?
A: 115 % of control

Q: Which results are given for `CN=C(N)c1ccc(NC(=O)c2ccc(C(=O)Nc3ccc(C(N)=NC)cc3)cc2)cc1`?
A: T/C (dose: 15.0 mg/kg/injection, schedule: Q01DX010 (ip), vehicle: saline): 150 % of control and 160 % of control; T/C (dose: 30.0 mg/kg/injection, schedule: Q01DX010 (ip), vehicle: saline): 160 % of control and 175 % of control; T/C (dose: 60.0 mg/kg/injection, schedule: Q01DX010 (ip), vehicle: saline): 175 % of control and 180 % of control; T/C (dose: 120.0 mg/kg/injection, schedule: Q01DX010 (ip), vehicle: saline): 160 % of control

Q: How did the T/C (dose: 50.0 mg/kg/injection, schedule: Q04DX003 (ip), vehicle: Klucel (hydroxypropylcellulose) (HPC)) turn out when `Cc1ncc([N+](=O)[O-])n1CCO` was run?
A: 100 % of control

Q: And the T/C (dose: 100.0 mg/kg/injection, schedule: Q04DX003 (ip), vehicle: Klucel (hydroxypropylcellulose) (HPC))?
A: 100 % of control

Q: What about the T/C (dose: 200.0 mg/kg/injection, schedule: Q04DX003 (ip), vehicle: Klucel (hydroxypropylcellulose) (HPC)) of the same compound?
A: 95 % of control

Q: And the T/C (dose: 400.0 mg/kg/injection, schedule: Q04DX003 (ip), vehicle: Klucel (hydroxypropylcellulose) (HPC))?
A: 91 % of control

Q: What does the source list for `O=C1C=CC(=O)N1c1ccc([N+](=O)[O-])cc1`?
A: T/C (dose: 5.25 mg/kg/injection, schedule: Q01DX009 (ip), vehicle: Klucel (hydroxypropylcellulose) (HPC)): 90 % of control; T/C (dose: 7.5 mg/kg/injection, schedule: Q04DX003 (ip), vehicle: Klucel (hydroxypropylcellulose) (HPC)): 116 % of control; T/C (dose: 10.5 mg/kg/injection, schedule: Q01DX009 (ip), vehicle: Klucel (hydroxypropylcellulose) (HPC)): 90 % of control; T/C (dose: 15.0 mg/kg/injection, schedule: Q04DX003 (ip), vehicle: Klucel (hydroxypropylcellulose) (HPC)): 95 % of control

Q: Which T/C (dose: 0.66 mg/kg/injection, schedule: Q01DX009 (ip), vehicle: Klucel (hydroxypropylcellulose) (HPC)) does the source give for `CC1CCC(NC(=O)N(CCCl)N=O)CC1` (stereo not drawn) here?
A: 97 % of control

Q: What about the T/C (dose: 0.99 mg/kg/injection, schedule: Q01DX009 (ip), vehicle: Klucel (hydroxypropylcellulose) (HPC)) of the same compound?
A: 107 % of control

Q: And the T/C (dose: 1.5 mg/kg/injection, schedule: Q01DX009 (ip), vehicle: Klucel (hydroxypropylcellulose) (HPC))?
A: 177 % of control

Q: What about the T/C (dose: 3.1 mg/kg/injection, schedule: Q04DX003 (ip), vehicle: Klucel (hydroxypropylcellulose) (HPC)) of the same compound?
A: 154 % of control

Q: What about the T/C (dose: 3.6 mg/kg/injection, schedule: Q01DX009 (ip), vehicle: Klucel (hydroxypropylcellulose) (HPC)) of the same compound?
A: 180 % of control

Q: And the T/C (dose: 4.7 mg/kg/injection, schedule: Q04DX003 (ip), vehicle: Klucel (hydroxypropylcellulose) (HPC))?
A: 172 % of control

Q: And the T/C (dose: 5.0 mg/kg/injection, schedule: Q04DX002 (ip), vehicle: other)?
A: 168 % of control

Q: What about the T/C (dose: 7.2 mg/kg/injection, schedule: Q04DX003 (ip), vehicle: saline) of the same compound?
A: 190 % of control

Q: And the T/C (dose: 8.3 mg/kg/injection, schedule: Q01DX009 (ip), vehicle: Klucel (hydroxypropylcellulose) (HPC))?
A: 250 % of control

Q: What about the T/C (dose: 9.4 mg/kg/injection, schedule: Q04DX003 (ip), vehicle: saline with Tween-80) of the same compound?
A: 113 % of control

Q: What about the T/C (dose: 10.0 mg/kg/injection, schedule: Q01DX001 (ip), vehicle: alcohol) of the same compound?
A: 119 % of control

Q: And the T/C (dose: 10.0 mg/kg/injection, schedule: Q04DX002 (ip), vehicle: other)?
A: 194 % of control

Q: And the T/C (dose: 10.0 mg/kg/injection, schedule: Q04DX003 (ip), vehicle: saline with Tween-80)?
A: 209 % of control

Q: And the T/C (dose: 10.0 mg/kg/injection, schedule: Q04DX003 (ip), vehicle: saline)?
A: 225 % of control

Q: What about the T/C (dose: 11.0 mg/kg/injection, schedule: Q04DX003 (ip), vehicle: saline with Tween-80) of the same compound?
A: 272 % of control

Q: And the T/C (dose: 12.5 mg/kg/injection, schedule: Q01DX009 (ip), vehicle: Klucel (hydroxypropylcellulose) (HPC))?
A: 300 % of control and 120 % of control

Q: What about the T/C (dose: 15.0 mg/kg/injection, schedule: Q04DX003 (ip), vehicle: saline with Tween-80) of the same compound?
A: 241 % of control and 322 % of control and 212 % of control

Q: What about the T/C (dose: 16.0 mg/kg/injection, schedule: Q01DX001 (ip), vehicle: saline with Tween-80) of the same compound?
A: 322 % of control

Q: What about the T/C (dose: 16.0 mg/kg/injection, schedule: Q04DX003 (ip), vehicle: saline with Tween-80) of the same compound?
A: 545 % of control

Q: What about the T/C (dose: 16.5 mg/kg/injection, schedule: Q04DX003 (ip), vehicle: saline) of the same compound?
A: 272 % of control

Q: What about the T/C (dose: 18.0 mg/kg/injection, schedule: Q01DX009 (ip), vehicle: Klucel (hydroxypropylcellulose) (HPC)) of the same compound?
A: 110 % of control

Q: What about the T/C (dose: 18.75 mg/kg/injection, schedule: Q01DX009 (ip), vehicle: Klucel (hydroxypropylcellulose) (HPC)) of the same compound?
A: 100 % of control

Q: What about the T/C (dose: 20.0 mg/kg/injection, schedule: Q04DX002 (ip), vehicle: other) of the same compound?
A: 247 % of control

Q: And the T/C (dose: 20.0 mg/kg/injection, schedule: Q04DX003 (ip), vehicle: saline with Tween-80)?
A: 258 % of control and 294 % of control and 482 % of control

Q: What about the T/C (dose: 24.0 mg/kg/injection, schedule: Q04DX003 (ip), vehicle: saline with Tween-80) of the same compound?
A: 545 % of control

Q: And the T/C (dose: 25.0 mg/kg/injection, schedule: Q01DX009 (ip), vehicle: Klucel (hydroxypropylcellulose) (HPC))?
A: 115 % of control

Q: And the T/C (dose: 25.0 mg/kg/injection, schedule: Q04DX003 (ip), vehicle: alcohol)?
A: 300 % of control

Q: And the T/C [1]?
A: 240 % of control and 272 % of control

Q: What about the T/C (dose: 30.0 mg/kg/injection, schedule: Q04DX003 (ip), vehicle: saline with Tween-80) of the same compound?
A: 446 % of control

Q: And the T/C (dose: 37.5 mg/kg/injection, schedule: Q04DX003 (ip), vehicle: saline)?
A: 90 % of control and 218 % of control

Q: What about the T/C (dose: 40.0 mg/kg/injection, schedule: Q04DX002 (ip), vehicle: other) of the same compound?
A: 117 % of control

Q: And the T/C (dose: 50.0 mg/kg/injection, schedule: Q04DX003 (ip), vehicle: alcohol)?
A: 115 % of control

Q: What about the T/C (dose: 54.0 mg/kg/injection, schedule: Q01DX001 (ip), vehicle: saline with Tween-80) of the same compound?
A: 499 % of control

Q: Which T/C [2] does the source give for `CCOC(=O)CC(=O)c1ccc(C)cc1` here?
A: 90 % of control

Q: And the T/C [3]?
A: 90 % of control

Q: Which results are given for `O=C(O)C1=CC(O)C(O)C(O)C1` (stereo not drawn)?
A: T/C (dose: 50.0 mg/kg/injection, schedule: Q01DX009 (ip), vehicle: saline): 87 % of control; T/C (dose: 100.0 mg/kg/injection, schedule: Q01DX009 (ip), vehicle: saline): 100 % of control; T/C (dose: 100.0 mg/kg/injection, schedule: Q04DX003 (ip), vehicle: saline sonified): 100 % of control; T/C (dose: 200.0 mg/kg/injection, schedule: Q01DX009 (ip), vehicle: saline): 91 % of control; T/C (dose: 200.0 mg/kg/injection, schedule: Q04DX003 (ip), vehicle: saline sonified): 100 % of control; T/C (dose: 400.0 mg/kg/injection, schedule: Q04DX003 (ip), vehicle: saline sonified): 100 % of control
